Laboratory results published in patent US11203598B2, “Compounds for repressing cancer cell growth” (Institute For Cancer Research, priority 2018, dated 2021).

Tests used:
[1] = test system: 8226 cells; assay: combination treatment with bortezomib, combination index (CompuSyn); type: cell-based; details: 48 hours, 0-100 nM Bortezomib with 0-200 μM analog
Description: Referring to FIG. 21 (panels A and B), 3×10^4 cells/well of 8226 cells were seeded in a 96-well plate. The cells were treated for 48 hours with a combination of 0-100 nM Bortezomib with 0-200 μM Analog 4 (see, panel A) and 0-100 nM Bortezomib with 0-200 μM Analog 11 (see, FIG. 21, panel B). CompuSyn software was used to analyze the combination index of both drugs.

[2] = test system: p53 pathway proteins in SW480 cells; assay: Western blot of p53, p53 targets, apoptosis and autophagy markers; type: cell-based, human; details: for Noxa protein expression: SW80 cells, 24 hours
Description: (§1) After treatment, cells were harvested by trypsinization, washed with PBS, and lysed with RIPA buffer (Sigma-Aldrich) for 30 minutes to 1 hour at 4° C. Protein lysates were spun down and supernatant was collected. Protein quantification was performed using a Pierce™ BCA Protein Assay Kit (Thermo Fisher Scientific). 1×NuPAGE® LDS sample buffer (Thermo Fisher Scientific) and 2-Mercaptoethanol as the reducing agent (Sigma-Aldrich) were added to protein lysates, followed by boiling for 15 minutes at 95° C. Equal total protein amounts samples were loaded into NuPAGE™ Novex™ 4-12% Bis-Tris Protein Gels (1.5 mm, Thermo Fisher Scientific) and gel eletrophoresis was performed with NuPAGE™ MES SDS Running Buffer. Proteins were transferred onto an Immobilon-P membrane (PVDF, EMD Millipore) using a Bio-Rad system with a 10% Tris-Glycine and 10% methanol transfer buffer diluted in distilled and deionized water. After transfer, membranes were blocked with 10% milk in TBST solution and then incubated overnight with primary antibody, washed with TBST and incubated with secondary antibody for 1 hour. Incubations were performed in 5% milk in TBST solution. Signal was detected by using a chemiluminescent detection kit, followed by autoradiography. The following antibodies were used: p53 (DO-1, 1:1000, Santa Cruz), p73 (1:1000, Bethyl Laboratories), p21 and NOXA (1:250, EMD Millipore), DR5, FADD, cleaved caspase 3, cleaved caspase 8, cleaved PARP, and LC3B (1:1000, Cell Signaling), and β-actin (1:10000, Sigma).
(§2) Proteins were isolated using NP40 Lysis Buffer (20 mmol/L Tris-HCl (pH 7.4), 150 mmol/L NaCl, 5 mmol/L EDTA, 50 mmol/L NaF, 1 mmol/L glycerophosphate, 5 mmol/L Na4P2O7, 0.5% NP40, and complete protease inhibitor cocktail (Roche)) and electrophoresed through 4-12% SDS-PAGE followed by semi-dry transfer to PVDF membranes. The PVDF membranes were incubated with different antibodies including p21 (OP64-100UG, EMD Millipore (world wide web at emdmillipore.com/US/en/product/Antip21WAF1-(Ab-1)-Mouse-mAb-(EA10), EMD_BIO-OP64)), PUMA (12450S, Cell Signaling Technology, world wide web at cellsignal.com/products/primary-antibodies/puma-d30c10-rabbit-mab/12450), DR5 (3696S, Cell Signaling Technology, world wide web at cellsignal.com/products/primary-antibodies/dr5-antibody/3696?N=4294956287&Ntt=3696s&fromPage=plp& requestid=541668), p53(sc-126, Santa Cruz, world wide web at scbt.com/scbt/fr/product/p53-antibody-do-1), and RAN (610341, BD Transduction Laboratories, world wide web at bdbiosciences.com/us/reagents/research/antibodies-buffers/cell-biologyreagents/cell-biology-antibodies/purified-mouse-anti-ran-20ran/p/610341) in blocking buffer at 4° C. overnight. Bound antibody will be detected using IRDye secondary antibodies (LI-COR Biosciences,) in Odyssey blocking buffer for 1 hour then imaged using the ODYSSEY infrared imaging system.

[3] = test system: SW480 cells; assay: CellTiter-Glo luminescent cell viability assay; type: cell-based, human
Description: Cells were seeded in 96-well plates at a density of 5×10^3 cells per well. 20 μL of CellTiter-Glo® Reagent was added directly to the wells, following the manufacturer's protocol, and bioluminescence signal was determined using an IVIS imaging system.
Cell lines at a concentration of 4×10^3 cells/well were seeded out on an opaque 96-well plate and treated with CB002 and Analog 11 in ranging doses starting from 200 μmol/L with DMSO controls. At 72 hours after treatment, cells were mixed with 30 μL Cell Titer-Glo reagent and after ten minutes of room temperature incubation were imaged using IVIS imaging system (Xenogen).
To begin establishing the potential of CB002 as a candidate therapeutic agent, its therapeutic index was determined by treating cancer (DLD-1, SW480, and RXF393) and normal (WI38 and MRC5) cell lines with concentrations of CB002 ranging from 0-500 μM for a period of 72 hours and assessing cell viability by the CellTiter-Glo® luminescence assay (see, FIG. 2). CB002 has a significant therapeutic index among the cells tested.

[4] = test system: Noxa in 8226 bortezomib resistant multiple myeloma cell line; assay: Western blot of Noxa; type: cell-based; details: 25 μM Analog 4, 100 μM Analog 11
Description: Referring to FIG. 20 (panel C), 1×10^6 cells/well were seeded in a 12-well plate. 8226 parental and resistant multiple myeloma cell lines were treated with 100 μM CB002, 25 μM Analog 4, or 100 μM Analog 11.

[5] = test system: SW480 cells; assay: apoptosis assay, sub-G1 analysis (propidium iodide, flow cytometry); type: cell-based, human; details: 25 μM, 48 hours
Description: (§3) Apoptotic cells were quantified by sub-G1 analysis. Cells were seeded at a density of 2.5×10^5 to 5×10^5 in a 6-well plate and treated for 48-72 hours. After treatment, adherent cells were trypsinized and collected along with floating cells, washed with PBS and fixed in 70% ethanol. Cells were then incubated in a Phosphate-citric acid buffer (0.2 M Na2HPO4+0.1 M Citric Acid, pH 7.8) at room temperature for 5 minutes, spun down and resuspended for staining with 50 μg/mL propidium iodide (PI) in the presence of 250 μg/mL pancreatic ribonuclease (RNase A). Sub-G1 analyses were performed using an Epics Elite Epics flow cytometer (Coulter-Beckman).
(§4) Cells were seeded out at 1×10^6 cells/well on six well plates and treated with CB002 and Analog 11 at ranging doses with DMSO controls. Cells were harvested after 72 hours of treatment, all cells including floating cells were fixed with ethanol and stained with Propidium Iodide and then analyzed using Epics Elite flow cytometer to measure the DNA content of the stained cells.

[6] = test system: WI38 normal cells; assay: as above; type: cell-based, human; details: 25 μM, 48 hours
Description: as §3, §4

[7] = test system: MM1S Bortezomib resistant cells; assay: Cell Titer-Glo cell viability with bortezomib; type: cell-based; details: 25 μM Analog 4
Description: Referring to FIG. 21 (panel C), 3×10^4 cells/well of MM1S parental and Bortezomib MM1S resistant cells were seeded in a 96-well plate. Cell viability was determined by the Cell Titer-Glo® Assay.

[8] = test system: cell cycle G2 checkpoint; assay: propidium iodide staining cell cycle analysis; type: cell-based; details: 24 hour treatment, alone and with etoposide
Description: Referring to FIG. 22 (panels A-F), propidium iodide staining cell cycle analysis for 24 hour treatment with DMSO (panel A), CB002 (panel B), CB002 and etoposide (panel C), etoposide (panel D), caffeine (panel E), and caffeine and etoposixe (panel F). […] The deregulation of the G2 checkpoint as a mechanism by caffeine prevents […] tumor cells that are treated with DNA damaging drugs, such as etoposide, from arresting to have time to repair, and thus sensitizes cancer cells to cell death.

[9] = test system: p53 pathway proteins in DLD-1 cells; assay: Western blot of p53 targets and LC3B; type: cell-based, human; details: DLD-1, 24 hours
Description: as §1, §2

## Cn1c(=O)c2[nH]c(Nc3cccc(C(F)(F)F)c3)nc2n(C)c1=O [Analog 4]
[1]
  synergy with Bortezomib (combination index): synergyze the most with Bortezomib
[2]; 12 or 25 μM, 16 and 24 hours
  expression of DR5, Noxa and cleaved Parp: increased expression of DR5, Noxa, and cleaved Parp
[2]; 24 hour, 100 μM CB002, 25 NM Analog 4, 100 μM Analog 11
  Noxa expression: Induction of Noxa expression
[3]; Cell Titer-Glo, serial dilution
  IC50 ranking among CB002 analogs: most potent compound
[4]
  Noxa expression: able to induce Noxa expression
[5]
  apoptosis by sub-G1 content: underwent apoptosis
[6]
  apoptosis by sub-G1 content: not normal human fibroblast WI38 cells
[7]
  sensitization to Bortezomib (cell viability): able to sensitize MM1S resistant cells to Bortezomib treatment

## O=c1[nH]cc(F)c(=O)[nH]1 [Analog 5-FU, 5-fluorouracil, reference compound]
[3]; 72 hours, ascending doses
  toxicity (cell viability reduction), 5-FU versus CPT-11: greater toxicity

## Cn1c(=O)c2c(ncn2C)n(C)c1=O [caffeine, reference compound]
[2]
  Noxa protein expression: dis not induce Noxa expression
[8]
  effect on cell cycle G2 checkpoint: can deregulate the cell cycle G2 checkpoint
[9]
  Noxa protein expression: dis not induce Noxa expression

## CC(=O)CCCCn1c(=O)c2c(ncn2C)n(C)c1=O [pentoxifylline, reference compound]
[2]
  Noxa protein expression: dis not induce Noxa expression
[9]
  Noxa protein expression: dis not induce Noxa expression

## Cn1c(=O)c2[nH]cnc2n(C)c1=O [theophylline, reference compound]
[2]
  Noxa protein expression: dis not induce Noxa expression
[9]
  Noxa protein expression: dis not induce Noxa expression
